Measured values: ChEMBL document CHEMBL3885881, “DrugMatrix”

Species: Rattus norvegicus
Assay: DrugMatrix - Regimen: Daily Repeat
Format: toxicity, organism-based, Sprague-Dawley
Parameters: regimen Daily Repeat, gender Male, age 6-8 weeks
Conditions: in vivo, iv, vehicle 100 % SALINE; for ABSOLUTE BASOPHIL / ABSOLUTE EOSINOPHIL / ABSOLUTE LYMPHOCYTE / ABSOLUTE MONOCYTE / ABSOLUTE SEGMENTED NEUTROPHIL / BASOPHIL / EOSINOPHIL / ERYTHROCYTE COUNT / HEMATOCRIT / HEMOGLOBIN / LEUKOCYTE COUNT / LYMPHOCYTE / MEAN CORPUSCULAR HEMOGLOBIN / MEAN CORPUSCULAR HEMOGLOBIN CONCENTRATION / MEAN CORPUSCULAR VOLUME / MONOCYTE / NEUTROPHIL / NUCLEATED RED BLOOD CELLS / PLATELET COUNT: tissue Blood; for ALANINE AMINOTRANSFERASE / ALBUMIN / ALKALINE PHOSPHATASE / ASPARTATE AMINOTRANSFERASE / BLOOD UREA NITROGEN / CARBON DIOXIDE / CHLORIDE / CHOLESTEROL / CREATINE PHOSPHOKINASE / CREATININE / GLUCOSE / LACTATE DEHYDROGENASE / LIPASE / PHOSPHORUS / POTASSIUM / SODIUM / TOTAL BILIRUBIN / TOTAL PROTEIN / URIC ACID: tissue Plasma
[1] = 0 mg/kg, 72 h, dose level Control, time 3 day
[2] = 0 mg/kg, 120 h, dose level Control, time 5 day
[3] = 10 mg/kg, 72 h, dose level Low, time 3 day

With `O=C(O)P(=O)(O)O` [FOSCARNET] the “ABSOLUTE BASOPHIL” value [1] was 0 CELLS/uL, the “ABSOLUTE EOSINOPHIL” value [1] was 247.67 CELLS/uL and the “ABSOLUTE LYMPHOCYTE” value [1] was 13190.83 CELLS/uL. The “ABSOLUTE MONOCYTE” value [1] was 307.67 CELLS/uL, the “ABSOLUTE SEGMENTED NEUTROPHIL” value [1] was 1220.5 CELLS/uL and the BASOPHIL [1] was 0%. For the same compound, the EOSINOPHIL [1] was 1.67%, the “ERYTHROCYTE COUNT” value [1] was 5.47 x10E6/uL and the HEMATOCRIT [1] was 33.98%. The HEMOGLOBIN [1] was 12.65 G/DL, the “LEUKOCYTE COUNT” value [1] was 14.97 x10E3/uL and the LYMPHOCYTE [1] was 88.17%. The “MEAN CORPUSCULAR HEMOGLOBIN” value [1] was 23.17 pg, the “MEAN CORPUSCULAR HEMOGLOBIN CONCENTRATION” value [1] was 37.23 G/DL and the “MEAN CORPUSCULAR VOLUME” value [1] was 62.25 fL. The MONOCYTE [1] was 2%, the NEUTROPHIL [1] was 8.17% and the “NUCLEATED RED BLOOD CELLS” value [1] was 0 /100WBC. The “PLATELET COUNT” value [1] was 1307.17 x10E3/uL, the “ALANINE AMINOTRANSFERASE” value [1] was 39.67 u/L and the ALBUMIN [1] was 4.08 G/DL. The “ALKALINE PHOSPHATASE” value [1] was 383.17 u/L, the “ASPARTATE AMINOTRANSFERASE” value [1] was 88.83 u/L and the “BLOOD UREA NITROGEN” value [1] was 18.5 mg/dL. For the same compound, the “CARBON DIOXIDE” value [1] was 27.5 mmol/L, the CHLORIDE [1] was 103 MEQ/L and the CHOLESTEROL [1] was 67.33 mg/dL. The “CREATINE PHOSPHOKINASE” value [1] was 414.67 u/L, the CREATININE [1] was 0.19 mg/dL and the GLUCOSE [1] was 149.33 mg/dL. The “LACTATE DEHYDROGENASE” value [1] was 536.83 u/L, the LIPASE [1] was 8.83 u/L and the PHOSPHORUS [1] was 11.13 mg/dL. For the same compound, the POTASSIUM [1] was 6.23 MEQ/L, the SODIUM [1] was 144.42 MEQ/L and the “TOTAL BILIRUBIN” value [1] was 0.18 mg/dL. For the same compound, the “TOTAL PROTEIN” value [1] was 5.57 G/DL, the “URIC ACID” value [1] was 1.23 mg/dL and the “ABSOLUTE BASOPHIL” value [2] was 0 CELLS/uL. The “ABSOLUTE EOSINOPHIL” value [2] was 158.83 CELLS/uL, the “ABSOLUTE LYMPHOCYTE” value [2] was 13517.17 CELLS/uL and the “ABSOLUTE MONOCYTE” value [2] was 352.67 CELLS/uL. For the same compound, the “ABSOLUTE SEGMENTED NEUTROPHIL” value [2] was 1104.67 CELLS/uL, the BASOPHIL [2] was 0% and the EOSINOPHIL [2] was 1%. The “ERYTHROCYTE COUNT” value [2] was 5.73 x10E6/uL, the HEMATOCRIT [2] was 36.85% and the HEMOGLOBIN [2] was 13.67 G/DL. For the same compound, the “LEUKOCYTE COUNT” value [2] was 15.13 x10E3/uL, the LYMPHOCYTE [2] was 89.5% and the “MEAN CORPUSCULAR HEMOGLOBIN” value [2] was 23.87 pg. The “MEAN CORPUSCULAR HEMOGLOBIN CONCENTRATION” value [2] was 37.1 G/DL, the “MEAN CORPUSCULAR VOLUME” value [2] was 64.33 fL and the MONOCYTE [2] was 2.33%. The NEUTROPHIL [2] was 7.17%, the “NUCLEATED RED BLOOD CELLS” value [2] was 0.17 /100WBC and the “PLATELET COUNT” value [2] was 1266 x10E3/uL. For the same compound, the “ALANINE AMINOTRANSFERASE” value [2] was 49.17 u/L, the ALBUMIN [2] was 4.22 G/DL and the “ALKALINE PHOSPHATASE” value [2] was 352.67 u/L. The “ASPARTATE AMINOTRANSFERASE” value [2] was 95.17 u/L, the “BLOOD UREA NITROGEN” value [2] was 18.83 mg/dL and the “CARBON DIOXIDE” value [2] was 25.67 mmol/L. The CHLORIDE [2] was 102.67 MEQ/L, the CHOLESTEROL [2] was 66.83 mg/dL and the “CREATINE PHOSPHOKINASE” value [2] was 550.33 u/L. For the same compound, the CREATININE [2] was 0.23 mg/dL, the GLUCOSE [2] was 186.17 mg/dL and the “LACTATE DEHYDROGENASE” value [2] was 471.33 u/L. The LIPASE [2] was 8.67 u/L, the PHOSPHORUS [2] was 12.3 mg/dL and the POTASSIUM [2] was 6.35 MEQ/L. For the same compound, the SODIUM [2] was 143.57 MEQ/L, the “TOTAL BILIRUBIN” value [2] was 0.18 mg/dL and the “TOTAL PROTEIN” value [2] was 6.05 G/DL. For the same compound, the “URIC ACID” value [2] was 2 mg/dL, the “ABSOLUTE BASOPHIL” value [3] was 0 CELLS/uL and the “ABSOLUTE EOSINOPHIL” value [3] was 119 CELLS/uL. The “ABSOLUTE LYMPHOCYTE” value [3] was 13526 CELLS/uL, the “ABSOLUTE MONOCYTE” value [3] was 339.33 CELLS/uL and the “ABSOLUTE SEGMENTED NEUTROPHIL” value [3] was 1849 CELLS/uL. The BASOPHIL [3] was 0%, the EOSINOPHIL [3] was 1% and the “ERYTHROCYTE COUNT” value [3] was 5.59 x10E6/uL. For the same compound, the HEMATOCRIT [3] was 35.27%, the HEMOGLOBIN [3] was 13.4 G/DL and the “LEUKOCYTE COUNT” value [3] was 15.83 x10E3/uL. For the same compound, the LYMPHOCYTE [3] was 86%, the “MEAN CORPUSCULAR HEMOGLOBIN” value [3] was 24.03 pg and the “MEAN CORPUSCULAR HEMOGLOBIN CONCENTRATION” value [3] was 38 G/DL. For the same compound, the “MEAN CORPUSCULAR VOLUME” value [3] was 63.2 fL, the MONOCYTE [3] was 2% and the NEUTROPHIL [3] was 11%. For the same compound, the “NUCLEATED RED BLOOD CELLS” value [3] was 0.33 /100WBC, the “PLATELET COUNT” value [3] was 1244.67 x10E3/uL and the “ALANINE AMINOTRANSFERASE” value [3] was 51.33 u/L. The ALBUMIN [3] was 4.37 G/DL, the “ALKALINE PHOSPHATASE” value [3] was 431.67 u/L and the “ASPARTATE AMINOTRANSFERASE” value [3] was 102 u/L. The “BLOOD UREA NITROGEN” value [3] was 16.67 mg/dL, the “CARBON DIOXIDE” value [3] was 26.67 mmol/L and the CHLORIDE [3] was 102 MEQ/L. For the same compound, the CHOLESTEROL [3] was 79.67 mg/dL, the “CREATINE PHOSPHOKINASE” value [3] was 558.33 u/L and the CREATININE [3] was 0.23 mg/dL. The GLUCOSE [3] was 150.33 mg/dL, the “LACTATE DEHYDROGENASE” value [3] was 837 u/L and the LIPASE [3] was 9.33 u/L. For the same compound, the PHOSPHORUS [3] was 11.7 mg/dL, the POTASSIUM [3] was 6.65 MEQ/L and the SODIUM [3] was 144.07 MEQ/L. For the same compound, the “TOTAL BILIRUBIN” value [3] was 0.23 mg/dL, the “TOTAL PROTEIN” value [3] was 5.83 G/DL and the “URIC ACID” value [3] was 1.27 mg/dL.
